According to PubChem BioAssay (NCI):
Where “and” joins values, the source holds several entries; their conditions need not be identical. Identical values can stand only once.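 Cultured in 96-well plates, cells were exposed to test compound for 48 hours across five concentrations. GI50: concentration for 50% inhibition of growth. TGI denotes the concentration required for complete inhibition of growth.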

What was measured:
Test in all cases: NCI tumour cell line growth inhibition, 48 h
COLO 205 colon = tested on: COLO 205 colon
HCT-15 colon = tested on: HCT-15 colon
HOP-62 NSCLC = tested on: HOP-62 NSCLC
MDA-MB-231 breast = tested on: MDA-MB-231 breast
OVCAR-8 ovarian = tested on: OVCAR-8 ovarian
RXF 393 renal = tested on: RXF 393 renal
SNB-75 CNS = tested on: SNB-75 CNS
BT-549 breast = tested on: BT-549 breast
NCI-H522 lung = tested on: NCI-H522 lung
PC-3 prostate = tested on: PC-3 prostate

SMILES	TGI (COLO 205 colon)	TGI (HCT-15 colon)	TGI (HOP-62 NSCLC) [µM]	TGI (MDA-MB-231 breast) [µM]	TGI (OVCAR-8 ovarian) [µM]	TGI (RXF 393 renal) [µM]	TGI (SNB-75 CNS)	TGI (BT-549 breast) [µM]	TGI (NCI-H522 lung)	TGI (PC-3 prostate) [µM]	GI50 (BT-549 breast) [µM]	GI50 (HCT-15 colon)	GI50 (MDA-MB-231 breast) [µM]	GI50 (PC-3 prostate) [µM]	GI50 (SNB-75 CNS)	GI50 (HOP-62 NSCLC)	GI50 (NCI-H522 lung)	GI50 (RXF 393 renal)
c1ccc(CCN2CCc3[nH]c4ccccc4c3C2)cc1	> 10 µM	46.2 µM	45.6	87.7	44.7	34.3	68 µM											
CCOC(=O)C(NC(=O)N(C1=NCC(C)S1)C1CCCCC1)(OC)C(F)(F)F (stereo not given)	50.8 µM	> 100 µM	41.7	> 100	> 100	45.5	75.1 µM	> 100	83.4 µM	> 100								
COc1nc2c(c(=O)n1C)N[C@H]1[C@H](OC(C)=O)[C@@H](OC(C)=O)CO[C@H]1N2	> 100 µM	> 100 µM	> 100	> 100	> 100	> 100	> 100 µM	> 100	> 100 µM	> 100								
c1ccc(CCNCc2ccco2)nc1	> 100 µM	> 100 µM	> 100	> 100	> 100	> 100	> 100 µM	> 100	> 100 µM	> 100								
C=C(CCC(C)C1CCC2C3=C(C(=O)CC21C)C1(C)CCC(=O)[C@@H](C)C1CC3=O)C(C)C(=O)O (stereo not given in full)	> 100 µM	> 100 µM	> 100	> 100	> 100	57.4	> 100 µM	> 100	> 100 µM	> 100								
Nc1nc(-c2ccccc2N=NN2CCCC2)nc2ccccc12	10.4 µM	11.1 µM	5.11	3.63	3.77	20.4	23.8 µM	24.1	16.5 µM	15.4								
Cc1ccncc1.F[B-](F)(F)F.[Pt+2].c1ccc(-c2cccc(-c3ccccn3)n2)nc1	20.8 µM	38.1 µM	> 55.2	> 100	31	38.4	> 89.7 µM	> 78.6	36.3 µM	> 100	13.7							
O=C1CCC2(CCO1)OCCO2		> 100 µM	> 100	> 100	> 100	> 100	> 100 µM	> 100	> 100 µM	> 100								
O=CC(O)C(O)C(O)C(O)C(=O)NCCCCCCCCCCCCNC(=O)C(O)C(O)C(O)C(O)C=O (stereo not given)	> 100 µM	> 100 µM	> 100	> 100	> 100	> 100		> 100	> 100 µM	> 100								
C(=C\c1cccc(/C=C/c2ccccn2)n1)/c1ccccn1	> 100 µM	> 100 µM	> 100	> 100	> 100	> 100	> 100 µM	40.9	28.8 µM	> 100								
CCc1c(Cc2cccc3ccccc23)n2c(nc1=O)SCC2OCCO (stereo not given)	> 100 µM	> 100 µM		> 100	> 100	> 100	> 100 µM	> 100	> 100 µM	> 100								
CN1CCN(c2c(Cl)cc(Cl)c3[nH]c4ccccc4c(=O)c23)CC1	25.3 µM	17.1 µM	19.5	28.7	27.9	25.2	22.5 µM	31.2	19.2 µM	23.3								
CC12N=NN(c3ccc([N+](=O)[O-])cc3)C1(O)c1ccccc1C2=O (stereo not given)	> 100 µM	> 100 µM	> 100		> 100	> 100			> 100 µM									
Clc1ccc(N2N=C(c3cccc(Nc4ccncc4)c3)CC2c2ccc3c(c2)OCO3)cc1 (stereo not given)		3.41 µM		2.64			5.68 µM	28.6		3.27	4.92	1.76 µM	1.29	1.58	1.58 µM			
CC(=O)Nc1ccc(C(=O)NN2C(=O)C(Cl)C2c2ccc([N+](=O)[O-])cc2)cc1 (stereo not given)	> 100 µM	> 100 µM	> 100		> 100	> 100	> 100 µM		> 100 µM									
CCCCc1cc2c(C)cc(=O)oc2c(O)c1O	56.5 µM	> 100 µM	65.8	28	> 100	59.6	> 100 µM	33.6	49 µM	68.1								
COC1OC(Cc2nnc(C)o2)C(OCc2ccccc2)C(OCc2ccccc2)C1OCc1ccccc1 (stereo not given)	44.1 µM	> 100 µM	> 100	> 100		48.2	> 100 µM	83.1	52.7 µM									
O=C(CSCC(=O)N/N=C/c1cccs1)N/N=C/c1cccs1		> 100 µM	> 100	> 100	> 100	> 100	> 100 µM	> 100	> 100 µM	> 100								
CC(=O)/C(=C/n1c(=S)[nH]c2ccccc21)C(=O)Nc1ccccc1C	> 100 µM	> 100 µM	> 100	> 100	> 100	> 100	> 100 µM	> 100										
CC[N+](C)(CC)CCC(O)(c1ccccc1)c1ccccc1	> 100 µM	> 100 µM	> 100	> 100	> 100	> 100	> 100 µM	> 100	> 100 µM	> 100								
COc1cc2nc(-c3ccc4ccccc4c3)[nH]c(=O)c2cc1OC	> 100 µM	> 100 µM	84.3	> 100	> 100	> 100	58.3 µM	> 100	> 100 µM	> 100								
CN(C)c1nc(N(C)C)nc(N(C)C23CC4CC(CC(C4)C2)C3)n1	32.7 µM	> 100 µM	> 100	77.4	> 100	67.9	86 µM	63.4	41 µM	72								
Nc1cccc2c1C(=O)c1cccc(N)c1C2=O	> 100 µM	> 100 µM	> 100		> 100	> 100	> 100 µM		> 100 µM									
Cc1nc2c3c(ncn2n1)Oc1c(c(-c2ccccc2)nn1-c1ccccc1)C3c1ccc(Cl)cc1 (stereo not given)	> 100 µM	> 100 µM	> 100	> 100	> 100	> 100	> 100 µM			> 100								

SMILES	TGI (COLO 205 colon)	TGI (HCT-15 colon)	TGI (HOP-62 NSCLC) [µM]	TGI (MDA-MB-231 breast) [µM]	TGI (OVCAR-8 ovarian) [µM]	TGI (RXF 393 renal) [µM]	TGI (SNB-75 CNS)	TGI (BT-549 breast) [µM]	TGI (NCI-H522 lung)	TGI (PC-3 prostate) [µM]	GI50 (BT-549 breast) [µM]	GI50 (HCT-15 colon)	GI50 (MDA-MB-231 breast) [µM]	GI50 (PC-3 prostate) [µM]	GI50 (SNB-75 CNS)	GI50 (HOP-62 NSCLC)	GI50 (NCI-H522 lung)	GI50 (RXF 393 renal)
Cc1ccc(S(=O)(=O)NNC(=O)c2cc(C)ccc2NC(=O)C23CC4CC(CC(C4)C2)C3)cc1	> 100 µM	66.8 µM	> 100	> 100	> 100	78		> 100	76.3 µM	> 100								
Nc1ncnc2c1ncn2C1CCC(COS(N)(=O)=O)C1 (stereo not given)	> 100 µM	> 100 µM	> 100	> 100	> 100	> 100	> 100 µM			> 100								
O=C(NCc1cccc(C(F)(F)F)c1)c1cc2sccc2nc1C(F)(F)F	> 100 µM		> 100	> 100	> 100	> 100		> 100	> 100 µM	> 100								
O=C(/C(=C\C(=O)c1cccs1)c1ccsc1)c1ccc(Br)cc1	> 100 µM	> 100 µM	> 100	> 100	> 100		> 100 µM			> 100								
CC1OC2=N[C@@H]1C(=O)N[C@@H](C(C)C)C1=N[C@H](C(=O)N[C@@H](C(C)C)C3=N[C@H](C(=O)N[C@@H](C(C)C)C4=N[C@H](C(=O)N[C@H]2C(C)C)C(C)O4)C(C)O3)C(C)O1 (stereo not given in full)	> 10 µM	> 10 µM	> 10	> 10	> 10	> 10	> 10 µM		> 10 µM	> 10								
Cc1ccc(C(C)(C)C[P+](C)(c2ccccc2)c2ccccc2)cc1	18.7 µM	> 100 µM	75.9		> 100	> 94.1	50.8 µM		19.1 µM									
CCOC(=O)C(=[N+]=[N-])C(=O)Nc1nn2nnnc2c2ccccc12	> 100 µM		> 100	> 100	> 100	> 100	> 100 µM	> 100	> 100 µM	> 100								
CC[N+]1(C)CCC(O)(/C=C/c2ccc(OC)cc2)C(C(=O)/C=C/c2ccc(OC)cc2)C1 (stereo not given)	8.08 µM	> 55.4 µM	42.9	> 53.9	> 56.2	28.4	40.6 µM	49.7		42.6								
N#CC(C#N)=C1C(C#N)=C(N)NC12OCCO2	> 100 µM	> 100 µM	> 100	> 100	> 100	> 100		> 100	> 100 µM	> 100								
[Cl][Pt+2][Cl].[NH-]C1CCCCC1[NH-] (stereo not given)	> 49.5 µM and > 70.4 µM and 13.6 µM	35.3 µM and > 100 µM and 37.9 µM	> 100		> 100	> 100	97.6 µM and > 77.9 µM and 71 µM		20.7 µM and 38.2 µM and 12.4 µM			5.58 µM and 4.7 µM and 0.677 µM			25.1 µM and 19.6 µM and 3.41 µM	53.7 µM and > 100 µM and 22.3 µM	3.31 µM and 5.88 µM and 1.49 µM	> 57.9 µM and 66.8 µM and > 28.6 µM
COC(=O)C1CCC(=O)N1C(=O)Cc1ccc(OC)cc1 (stereo not given)	> 100 µM	> 100 µM			> 100		> 100 µM		> 100 µM									
COc1ccc(N(C)C(=O)N(C)c2ccc([N+](=O)[O-])cc2)cc1		> 100 µM	> 100	> 100	> 100	76.2	> 100 µM	> 100	> 100 µM									
COc1cc2c(cc1OCCCC(=O)Nc1cc(C(=O)Nc3cc(C(=O)Nc4cc(C(=O)NCCCN(C)C)n(C)n4)n(C)n3)n(C)n1)N=CC1CCCN1C2=O (stereo not given)	> 100 µM	> 100 µM	> 100	55.5	> 100	43.2	52.6 µM	37.5		> 100								
COc1ccc(/C=c2\[nH]c3nc(=O)c(N4CCOCC4)c(N)n3c2=O)cc1	> 100 µM	> 100 µM		> 100	> 100	> 100	64.5 µM		> 100 µM									
OCC1OC(n2cnc3cncnc32)C(O)C1O (stereo not given)	1.7 µM	2.08 µM	6.84		3.17	3.9	2.15 µM		5.42 µM									
C[C@@H](O)C(=O)N1[C@@H]2CC3CC[C@]2(CS1(=O)=O)C3(C)C	> 100 µM	> 100 µM	> 100	> 100	> 100	> 100	> 100 µM	> 100		> 100								
CC(C)=CCC/C(C)=C/CC/C(C)=C/Cc1c(O)c2ccccc2oc1=O	> 100 µM	> 100 µM	> 100		> 100	> 100	> 100 µM		> 100 µM									
O=Cc1ccccc1OCCOc1cc(OCCOc2ccccc2C=O)c(OCCOc2ccccc2C=O)cc1OCCOc1ccccc1C=O	> 100 µM	> 100 µM	> 100		> 100	> 100	23.9 µM		> 100 µM									
N#Cc1nc(CCCCCN2C(=O)c3ccccc3C2=O)oc1N	> 100 µM	> 100 µM	> 100	> 100	> 100	> 100		> 100	75.2 µM	> 100								
Cc1cccc2c1[nH]c1[nH]c(=O)[nH]c(=O)c12	> 100 µM	> 100 µM	> 100	> 100	> 100	> 100	85.5 µM	> 100	> 100 µM									
Cn1nc2n(c1=O)CCCN2	> 100 µM	> 100 µM	> 100	> 100	> 100	> 100	> 100 µM		> 100 µM	> 100								
C/C(=N\NC(=S)N1CCCCC1)c1cccc(C)n1	13.7 µM	21.6 µM		16.5	2.1	14.4	6.19 µM	5.5	10.6 µM	19.7								
Cc1ccccc1-n1c(C)nc2c1C(=O)c1ccccc1C2=O		> 100 µM	> 100		> 100	> 100			68.3 µM									
